Laboratory results taken from patent US20260262643A1, “HERBICIDAL BENZOXAZINES” (FMC CORPORATION, priority 2022, published 2026).

Assays:
kochia [1] = test: Test C preemergence; format: in vivo, Bassia scoparia
Procedure, shortened: (§1)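 Greenhouse herbicide screen, 10-day duration. Test chemicals in solvent/surfactant blend were sprayed onto soil at sowing (pre) or onto 2–10 cm seedlings at one to two leaves (post); injury scored visually against controls, 0 no effect to 100 complete control.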

rice = test: Test D flooded paddy test; format: in vivo, Oryza sativa; conditions: 250 g ai/ha, applied to paddy water, visual rating after 13 to 14 days, scale 0 to 100 (0 no effect, 100 complete control)
Procedure, shortened: (§2)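 Plants grown to the 2-leaf stage; pots flooded to 3 cm above soil at treatment and held at that depth throughout. Test compounds applied directly to the paddy water. After 13 to 14 days in a greenhouse, response was rated visually versus controls on a 0 (no effect) to 100 (complete control) scale.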

corn [2] = test: Test C postemergence; format: in vivo, Zea mays; conditions: 10 days, 0 to 100 scale (0 no effect, 100 complete control)
Procedure, shortened: as §1

horseweed = test: Test C postemergence; format: in vivo, Erigeron canadensis; conditions: 10 days, 0 to 100 scale (0 no effect, 100 complete control)
Procedure, shortened: as §1

wheat [3] = test: Test C preemergence; format: in vivo, Triticum aestivum
Procedure, shortened: as §1

ragweed [4] = test: Test C preemergence; format: in vivo, Ambrosia artemisiifolia
Procedure, shortened: as §1

blackgrass [5] = test: Test C preemergence; format: in vivo, Alopecurus myosuroides
Procedure, shortened: as §1

ryegrass, Italian [6] = test: Test C postemergence; format: in vivo, Lolium multiflorum; conditions: 10 days, 0 to 100 scale (0 no effect, 100 complete control)
Procedure, shortened: as §1

oat, wild [7] = test: Test C postemergence; format: in vivo, Avena fatua; conditions: 10 days, 0 to 100 scale (0 no effect, 100 complete control)
Procedure, shortened: as §1

corn [8] = test: Test C preemergence; format: in vivo, Zea mays; conditions: 500 g ai/ha, preemergence; 0 to 100 scale (0 no effect, 100 complete control)
Procedure, shortened: as §1

barnyardgrass [9] = test: Test D flooded paddy test; format: in vivo, Echinochloa crus-galli; conditions: 250 g ai/ha, applied to paddy water, visual rating after 13 to 14 days, scale 0 to 100 (0 no effect, 100 complete control)
Procedure, shortened: as §2

ragweed [10] = test: Test C postemergence; format: in vivo, Ambrosia artemisiifolia; conditions: 10 days, 0 to 100 scale (0 no effect, 100 complete control)
Procedure, shortened: as §1

soybean [11] = test: Test C preemergence; format: in vivo, Glycine max
Procedure, shortened: as §1

kochia [12] = test: Test C postemergence; format: in vivo, Bassia scoparia; conditions: 10 days, 0 to 100 scale (0 no effect, 100 complete control)
Procedure, shortened: as §1

barnyardgrass [13] = test: Test C preemergence; format: in vivo, Echinochloa crusgalli
Procedure, shortened: as §1

galium = test: Test C postemergence; format: in vivo, Galium aparine; conditions: 10 days, 0 to 100 scale (0 no effect, 100 complete control)
Procedure, shortened: as §1

sedge, umbrella = test: Test D flooded paddy test; format: in vivo, Cyperus difformis; conditions: 250 g ai/ha, applied to paddy water, visual rating after 13 to 14 days, scale 0 to 100 (0 no effect, 100 complete control)
Procedure, shortened: as §2

green foxtail [14] = test: Test C postemergence; format: in vivo, Setaria viridis; conditions: 10 days, 0 to 100 scale (0 no effect, 100 complete control)
Procedure, shortened: as §1

ryegrass, Italian [15] = test: Test C preemergence; format: in vivo, Lolium multiflorum
Procedure, shortened: as §1

pigweed, palmer [16] = test: Test C postemergence; format: in vivo, Amaranthus palmeri; conditions: 10 days, 0 to 100 scale (0 no effect, 100 complete control)
Procedure, shortened: as §1

pigweed, palmer [17] = test: Test C preemergence; format: in vivo, Amaranthus palmeri
Procedure, shortened: as §1

soybean [18] = test: Test C postemergence; format: in vivo, Glycine max; conditions: 10 days, 0 to 100 scale (0 no effect, 100 complete control)
Procedure, shortened: as §1

green foxtail [19] = test: Test C preemergence; format: in vivo, Setaria viridis
Procedure, shortened: as §1

blackgrass [20] = test: Test C postemergence; format: in vivo, Alopecurus myosuroides; conditions: 10 days, 0 to 100 scale (0 no effect, 100 complete control)
Procedure, shortened: as §1

ducksalad = test: Test D flooded paddy test; format: in vivo, Heteranthera limosa; conditions: 250 g ai/ha, applied to paddy water, visual rating after 13 to 14 days, scale 0 to 100 (0 no effect, 100 complete control)
Procedure, shortened: as §2

barnyardgrass [21] = test: Test C postemergence; format: in vivo, Echinochloa crusgalli; conditions: 10 days, 0 to 100 scale (0 no effect, 100 complete control)
Procedure, shortened: as §1

wheat [22] = test: Test C postemergence; format: in vivo, Triticum aestivum; conditions: 10 days, 0 to 100 scale (0 no effect, 100 complete control)
Procedure, shortened: as §1

oat, wild [23] = test: Test C preemergence; format: in vivo, Avena fatua
Procedure, shortened: as §1

[24] = 500 g ai/ha, preemergence, 0 to 100 scale (0 no effect, 100 complete control)
[25] = Preemergence, 125 g ai/ha, 0 to 100 scale, 0 no effect, 100 complete control

SMILES: Cc1ncn(-c2ccc(F)c(C(=S)N3C[C@H](C)Oc4c(C)cccc43)c2)n1 [Compound 362]
- Kochia plant response rating (kochia [1]; [24]): 80
- Plant response rating, Kochia (kochia [1]; [25]): 70
- Plant response rating, Rice (Flood) (rice): 25
- Plant response rating, Corn (corn [2]; 500 g ai/ha, postemergence): 40
- Plant response rating, Corn (corn [2]; Postemergence, 125 g ai/ha): 30
- Plant response rating, Horseweed (horseweed; 500 g ai/ha, postemergence): 10
- Plant response rating, Horseweed (horseweed; Postemergence, 125 g ai/ha): 0
- Wheat plant response rating (wheat [3]; [24]): 40
- Plant response rating, Wheat (wheat [3]; [25]): 10
- Ragweed plant response rating (ragweed [4]; [24]): 60
- Plant response rating, Ragweed (ragweed [4]; [25]): 20
- Blackgrass plant response rating (blackgrass [5]; [24]): 80
- Plant response rating, Blackgrass (blackgrass [5]; [25]): 50
- Plant response rating, Ryegrass, Italian (ryegrass, Italian [6]; 500 g ai/ha, postemergence): 90
- Plant response rating, Ryegrass, Italian (ryegrass, Italian [6]; Postemergence, 125 g ai/ha): 80
- Plant response rating, Oat, Wild (oat, wild [7]; 500 g ai/ha, postemergence): 60
- Plant response rating, Oat, Wild (oat, wild [7]; Postemergence, 125 g ai/ha): 30
- Corn plant response rating (corn [8]): 20
- Plant response rating, Barnyardgrass (Flood) (barnyardgrass [9]): 35
- Plant response rating, Ragweed (ragweed [10]; 500 g ai/ha, postemergence): 60
- Plant response rating, Ragweed (ragweed [10]; Postemergence, 125 g ai/ha): 50
- Soybean plant response rating (soybean [11]; [24]): 70
- Plant response rating, Soybean (soybean [11]; [25]): 50
- Plant response rating, Kochia (kochia [12]; 500 g ai/ha, postemergence): 90
- Plant response rating, Kochia (kochia [12]; Postemergence, 125 g ai/ha): 80
- Barnyardgrass plant response rating (barnyardgrass [13]; [24]): 100
- Plant response rating, Barnyardgrass (barnyardgrass [13]; [25]): 80
- Plant response rating, Galium (galium; 500 g ai/ha, postemergence): 100
- Plant response rating, Galium (galium; Postemergence, 125 g ai/ha): 100
- Plant response rating, Sedge, Umbrella (Flood) (sedge, umbrella): 95
- Plant response rating, Foxtail, Green (green foxtail [14]; 500 g ai/ha, postemergence): 90
- Plant response rating, Foxtail, Green (green foxtail [14]; Postemergence, 125 g ai/ha): 70
- Ryegrass, Italian plant response rating (ryegrass, Italian [15]; [24]): 90
- Plant response rating, Ryegrass, Italian (ryegrass, Italian [15]; [25]): 80
- Plant response rating, Pigweed, Palmer (pigweed, palmer [16]; 500 g ai/ha, postemergence): 80
- Plant response rating, Pigweed, Palmer (pigweed, palmer [16]; Postemergence, 125 g ai/ha): 30
- Pigweed, Palmer plant response rating (pigweed, palmer [17]; [24]): 100
- Plant response rating, Pigweed, Palmer (pigweed, palmer [17]; [25]): 90
- Plant response rating, Soybean (soybean [18]; 500 g ai/ha, postemergence): 100
- Plant response rating, Soybean (soybean [18]; Postemergence, 125 g ai/ha): 100
- Foxtail, Green plant response rating (green foxtail [19]; [24]): 100
- Plant response rating, Foxtail, Green (green foxtail [19]; [25]): 100
- Plant response rating, Blackgrass (blackgrass [20]; 500 g ai/ha, postemergence): 90
- Plant response rating, Blackgrass (blackgrass [20]; Postemergence, 125 g ai/ha): 70
- Plant response rating, Ducksalad (Flood) (ducksalad): 50
- Plant response rating, Barnyardgrass (barnyardgrass [21]; 500 g ai/ha, postemergence): 90
- Plant response rating, Barnyardgrass (barnyardgrass [21]; Postemergence, 125 g ai/ha): 60
- Plant response rating, Wheat (wheat [22]; 500 g ai/ha, postemergence): 60
- Plant response rating, Wheat (wheat [22]; Postemergence, 125 g ai/ha): 40
- Oat, Wild plant response rating (oat, wild [23]; [24]): 70
- Plant response rating, Oat, Wild (oat, wild [23]; [25]): 0
